{
  "source": "patent US9540649B2",
  "about": "“Method for opening tight junctions” (The Provost, Fellows and Scholars of the College of the …, priority 2007, dated 2017)",
  "key": {"claudin-1": {"test_system": "claudin-1", "test": "Western blot analysis of claudin-1 expression after hydrodynamic tail vein delivery of claudin-1 siRNA", "assay_type": "in vivo, C57/Bl-6 mice"}, "claudin-12": {"test_system": "claudin-12", "test": "Claudin-12 staining in brain microvasculature after claudin-12 siRNA", "assay_type": "in vivo, C57/Bl-6 mice", "conditions": "48 hours post-injection; vs non-targeting control siRNA"}, "IMPDH−/− mice": {"test_system": "IMPDH−/− mice", "test": "Electroretinographic analysis of IMPDH−/− mice after claudin-5 suppression and GTP injection", "assay_type": "in vivo", "description": "IMPDH−/− mice that had received a hydrodynamic injection of siRNA targeting claudin-5 were dark-adapted overnight and prepared for electroretinography under dim red light. Pupillary dilation was carried out by installation of 1% cyclopentalate and 2.5% phenylephrine. Animals were anesthetized by intraperitoneal injection of ketamine (2.08 mg per 15 g body weight) and xylazine (0.21 mg per 15 g body weight). Once the animal was anaesthetized, GTP was injected intraperitoneally. The ERG commenced ten minutes after administration of anesthetic. Standardised flashes of light were presented to the mouse in a Ganzfeld bowl to ensure uniform retinal illumination. The ERG responses were recorded simultaneously from both eyes by means of gold wire electrodes (Roland Consulting Gmbh) using Vidisic (Dr Mann Pharma, Germany) as a conducting agent and to maintain corneal hydration. The eye was maintained in a proposed position throughout the examination by means of a small plastic band placed behind the globe. Reference and ground electrodes were positioned subcutaneously, approximately 1 mm from the temporal canthus and anterior to the tail respectively. Body temperature was maintained at 37° C. using a heating device controlled by a rectal temperature probe. Responses were analysed using a RetiScan RetiPort electrophysiology unit (Roland Consulting Gmbh). The protocol was based on that approved by the International Clinical Standards Committee for human electroretinography."}, "BBB": {"test_system": "BBB", "test": "BBB permeability (albumin, immunoglobulin, Hoechst) following suppression of occludin", "assay_type": "in vivo, C57/Bl-6 mice", "conditions": "for albumin extravasation, immunohistochemistry in brain vibratome sections: 24 hours post-injection; for passage of mouse immunoglobulins (IgG) into the brain: following suppression of occludin", "from_the_text": "The protocols used were identical to the protocols used in Example 1."}, "occludin [1]": {"test_system": "occludin", "test": "Occludin immunohistochemistry in brain microvasculature after occludin siRNA", "assay_type": "in vivo, C57/Bl-6 mice", "conditions": "48 hour time-point"}, "occludin [2]": {"test_system": "occludin", "test": "Western blot analysis of occludin expression after hydrodynamic tail vein delivery of occludin siRNA", "assay_type": "in vivo, C57/Bl-6 mice"}, "C57/Bl6 mice": {"test_system": "C57/Bl6 mice", "test": "Behavioural output after TRH injection in claudin-5 suppressed mice", "assay_type": "in vivo", "description": "The protocol of Example 1 was followed to produce transiently claudin-5 suppressed mice. 48 hours post-delivery of siRNA targeting claudin-5 or a non-targeting siRNA, a 200 μl of a solution containing 20 mg/kg Thyrotropin Releasing Hormone (TRH) was injected to the claudin-5 suppressed mice. TRH was injected in the tail vein and immediately, the behavioural output of mice was assessed by filming them in a clear Perspex box."}, "[3]": {"conditions": "48 hours post injection, vs non-targeting siRNA"}},
  "note": "Entries after “also recorded” stand apart in the source; their conditions may differ.",
  "data": [
    {"compound": "claudin-1 siRNA (1): siRNA, target GCAAAGCACCGGGCAGAUA; sense AUAGACGGGCCACGAAACGUU, anti-sense CGUUUCGUGGCCCGUCUAUUU (SEQ ID NO: 9, 10) (listed as RNA, chemistry not given here)", "values": [
      {"measurement": "claudin-1 expression, Western blot", "setting": "claudin-1; 24 hours post-injection", "result": "not evident"},
      {"measurement": "claudin-1 expression, Western blot", "setting": "claudin-1; 48 hours post-injection", "result": "significantly decrease claudin-1 expression"}
    ]},
    {"compound": "CLDN12 siRNA (4): siRNA, target GGUCUUUACCUUUGACUAU; strands AAUCUUUACCUUUGACUAUUU and AUAGUCAAAGGUAAAGAUUUU (SEQ ID No. 30, 31) (listed as RNA, chemistry not given here)", "values": [
      {"measurement": "claudin-12 expression at the microvessels of the brain, staining", "setting": "claudin-12", "result": "decreased"}
    ]},
    {"compound": "Nc1nc2c(ncn2[C@@H]2O[C@H](COP(=O)(O)OP(=O)(O)OP(=O)(O)O)[C@@H](O)[C@H]2O)c(=O)[nH]1", "note": "[GTP]", "values": [
      {"measurement": "ERG rod response b-wave, left eye", "setting": "IMPDH−/− mice; 11 month old IMPDH−/− mouse, after suppression of claudin-5 and GTP i.p., 2.48 uV before", "result": 121, "unit": "uV"},
      {"measurement": "ERG rod response b-wave, right eye", "setting": "IMPDH−/− mice; 11 month old IMPDH−/− mouse, after suppression of claudin-5 and GTP i.p., 50.8 uV before", "result": 193, "unit": "uV"},
      {"measurement": "ERG rod tracings", "setting": "IMPDH−/− mice; IMPDH−/− mice, after suppression of claudin-5 and GTP injection", "result": "increase significantly"}
    ]},
    {"compound": "claudin-1 siRNA (2): siRNA, target GAACAGUACUUUGCAGGCA; sense ACGGACGUUUCAUGACAAGUU, anti-sense CUUGUCAUGAAACGUCCGUUU (SEQ ID NO: 11, 12) (listed as RNA, chemistry not given here)", "values": [
      {"measurement": "claudin-1 expression, Western blot", "setting": "claudin-1; 24 hours post-injection", "result": "decreased"}
    ]},
    {"compound": "occludin siRNA (4): siRNA, target AGAUGGAUCGGUAUGAUAA; sense AAUAGUAUGGCUAGGUAGAUU, anti-sense UCUACCUAGCCAUACUAUUUU (SEQ ID NO: 21, 22) (listed as RNA, chemistry not given here)", "values": [
      {"measurement": "albumin extravasation, immunohistochemistry in brain vibratome sections", "setting": "BBB", "result": "extravascular albumin"},
      {"measurement": "albumin extravasation, immunohistochemistry in brain vibratome sections", "setting": "BBB; listed as occludin siRNA 4", "result": "albumin deposition occurred"},
      {"measurement": "passage of mouse immunoglobulins (IgG) into the brain", "setting": "BBB", "result": "no extravasation of immunoglobulins"},
      {"measurement": "occludin staining pattern in brain microvasculature", "setting": "occludin [1]", "result": "returned to levels similar to those observed in the non-targeting controls"},
      {"measurement": "occludin expression, Western blot", "setting": "occludin [2]; 24 hours post injection", "result": "decrease"}
    ]},
    {"compound": "occludin siRNA (3): siRNA, target CAAAUUAUCGCACAUCAAG; sense GAACUACACGCUAUUAAACUU, anti-sense GUUUAAUAGCGUGUAGUUCUU (SEQ ID NO: 19, 20) (listed as RNA, chemistry not given here)", "values": [
      {"measurement": "albumin extravasation, immunohistochemistry in brain vibratome sections", "setting": "BBB", "result": "extravascular albumin"},
      {"measurement": "albumin extravasation, immunohistochemistry in brain vibratome sections", "setting": "BBB; listed as occludin siRNA 3", "result": "albumin deposition occurred"},
      {"measurement": "passage of mouse immunoglobulins (IgG) into the brain", "setting": "BBB", "result": "no extravasation of immunoglobulins"},
      {"measurement": "occludin staining pattern in brain microvasculature", "setting": "occludin [1]", "result": "returned to levels similar to those observed in the non-targeting controls"}
    ]},
    {"compound": "NC(=O)[C@@H]1CCCN1C(=O)[C@H](Cc1cnc[nH]1)NC(=O)[C@@H]1CCC(=O)N1", "note": "[TRH, Thyrotropin Releasing Hormone]", "values": [
      {"measurement": "duration of cessation of mobility relative to non-targeting control mice", "setting": "C57/Bl6 mice; 20 mg/kg TRH tail vein, 48 hours post delivery of siRNA targeting claudin-5", "result": "≤ 5", "unit": "times"},
      {"measurement": "mobility / length of time mice remain immobile", "setting": "C57/Bl6 mice; 20 mg/kg TRH, 48 hours post delivery of siRNA targeting claudin-5", "result": "significant cessation of mobility; also recorded: distinct increase in the length of time"},
      {"measurement": "delivery of TRH (359.5 Da) across the BBB", "setting": "C57/Bl6 mice; BBB opened with siRNA targeting claudin-5", "result": "significantly enhanced"}
    ]},
    {"compound": "occludin siRNA (2): siRNA, target GAUAUUACUUGAUCGUGAU; sense UAGUGCUAGUUCAUUAUAGUU, anti-sense CUAUAAUGAACUAGCACUAUU (SEQ ID NO: 17, 18) (listed as RNA, chemistry not given here)", "values": [
      {"measurement": "occludin staining pattern in brain microvasculature", "setting": "occludin [1]", "result": "discontinuous pattern of staining was also evident"},
      {"measurement": "occludin expression, Western blot", "setting": "occludin [2]; [3]", "result": "significantly decreased"}
    ]},
    {"compound": "claudin-1 siRNA (4): siRNA, target UUUCAGGUCUGGCGACAUU; sense UUACAGCGGUCUGGACUUUUU, anti-sense AAAGUCCAGACCGCUGUAAUU (SEQ ID NO: 13, 14) (listed as RNA, chemistry not given here)", "values": [
      {"measurement": "claudin-1 expression, Western blot", "setting": "claudin-1; 24 hours post-injection", "result": "decreased"},
      {"measurement": "claudin-1 expression, Western blot", "setting": "claudin-1; 48 hours post-injection", "result": "suppression was only evident"}
    ]},
    {"compound": "occludin siRNA (1): siRNA, target GUUAUAAGAUCUGGAAUGU; sense UGUAAGGUCUAGAAUAUUGUU, anti-sense CAAUAUUCUAGACCUUACAUU (SEQ ID NO: 15, 16) (listed as RNA, chemistry not given here)", "values": [
      {"measurement": "occludin staining pattern in brain microvasculature", "setting": "occludin [1]", "result": "discontinuous pattern of staining was also evident"},
      {"measurement": "occludin expression, Western blot", "setting": "occludin [2]; [3]", "result": "significantly decreased"}
    ]},
    {"compound": "CLDN12 siRNA (3): siRNA, target GUAACACGGCCUUCAAUUC; strands GUAACACGGCCUUCAAUUCUU and GAAUUGAAGGCCGUGUUACUU (SEQ ID No. 28, 29) (listed as RNA, chemistry not given here)", "values": [
      {"measurement": "claudin-12 expression at the microvessels of the brain, staining", "setting": "claudin-12", "result": "decreased"}
    ]}
  ]
}
